Assays:
Assay in all cases: fluorescent HDAC activity assay (BIOMOL kit) with purified HDAC
Format in all cases: biochemical
HDAC1 = HDAC1 (Homo sapiens, UniProt Q13547)
HDAC2 = HDAC2 (Homo sapiens, UniProt Q92769)
HDAC 3 = target: T1, HDAC 3 (Homo sapiens, UniProt O15379)
T1 construct: gene HDAC3

HDAC6 = target: T2, HDAC6 (Homo sapiens, UniProt Q9UBN7)
T2 sequence (Q9UBN7 1-1215): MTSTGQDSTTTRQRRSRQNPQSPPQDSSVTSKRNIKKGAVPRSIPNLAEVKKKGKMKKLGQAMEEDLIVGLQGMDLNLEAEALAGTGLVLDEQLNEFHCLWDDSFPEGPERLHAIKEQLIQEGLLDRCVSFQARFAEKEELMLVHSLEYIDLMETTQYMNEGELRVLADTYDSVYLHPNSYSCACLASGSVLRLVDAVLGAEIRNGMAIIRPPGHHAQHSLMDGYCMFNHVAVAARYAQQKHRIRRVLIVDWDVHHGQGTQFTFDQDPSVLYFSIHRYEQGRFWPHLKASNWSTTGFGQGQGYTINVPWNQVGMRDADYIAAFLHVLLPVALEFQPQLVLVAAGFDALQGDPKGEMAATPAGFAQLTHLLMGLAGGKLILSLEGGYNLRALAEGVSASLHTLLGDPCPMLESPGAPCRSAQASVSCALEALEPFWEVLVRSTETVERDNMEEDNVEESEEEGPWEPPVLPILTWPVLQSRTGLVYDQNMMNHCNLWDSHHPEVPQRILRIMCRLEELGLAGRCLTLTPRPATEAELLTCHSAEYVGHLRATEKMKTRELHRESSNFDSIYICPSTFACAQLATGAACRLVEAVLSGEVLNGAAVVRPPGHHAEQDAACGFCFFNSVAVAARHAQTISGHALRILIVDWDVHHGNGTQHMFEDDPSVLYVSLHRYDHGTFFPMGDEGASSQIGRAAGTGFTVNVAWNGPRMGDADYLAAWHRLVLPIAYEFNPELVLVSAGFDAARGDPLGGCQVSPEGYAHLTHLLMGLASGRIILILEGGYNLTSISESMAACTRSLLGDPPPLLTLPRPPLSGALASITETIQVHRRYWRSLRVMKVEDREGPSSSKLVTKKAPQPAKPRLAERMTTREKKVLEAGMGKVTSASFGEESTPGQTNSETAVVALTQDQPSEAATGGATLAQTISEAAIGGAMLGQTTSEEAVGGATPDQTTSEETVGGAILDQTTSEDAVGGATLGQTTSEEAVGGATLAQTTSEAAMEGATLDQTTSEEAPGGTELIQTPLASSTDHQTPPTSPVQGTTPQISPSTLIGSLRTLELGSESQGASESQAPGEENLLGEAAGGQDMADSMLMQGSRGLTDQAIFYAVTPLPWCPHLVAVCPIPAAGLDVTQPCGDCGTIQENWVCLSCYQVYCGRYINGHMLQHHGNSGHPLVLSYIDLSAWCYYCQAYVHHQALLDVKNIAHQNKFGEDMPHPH

HDAC5 = HDAC5 (Homo sapiens, UniProt Q9UQL6)
HDAC4 = HDAC4 (Homo sapiens, UniProt P56524)

Measured: IC50

Sequence of HDAC4 (P56524 whole entry): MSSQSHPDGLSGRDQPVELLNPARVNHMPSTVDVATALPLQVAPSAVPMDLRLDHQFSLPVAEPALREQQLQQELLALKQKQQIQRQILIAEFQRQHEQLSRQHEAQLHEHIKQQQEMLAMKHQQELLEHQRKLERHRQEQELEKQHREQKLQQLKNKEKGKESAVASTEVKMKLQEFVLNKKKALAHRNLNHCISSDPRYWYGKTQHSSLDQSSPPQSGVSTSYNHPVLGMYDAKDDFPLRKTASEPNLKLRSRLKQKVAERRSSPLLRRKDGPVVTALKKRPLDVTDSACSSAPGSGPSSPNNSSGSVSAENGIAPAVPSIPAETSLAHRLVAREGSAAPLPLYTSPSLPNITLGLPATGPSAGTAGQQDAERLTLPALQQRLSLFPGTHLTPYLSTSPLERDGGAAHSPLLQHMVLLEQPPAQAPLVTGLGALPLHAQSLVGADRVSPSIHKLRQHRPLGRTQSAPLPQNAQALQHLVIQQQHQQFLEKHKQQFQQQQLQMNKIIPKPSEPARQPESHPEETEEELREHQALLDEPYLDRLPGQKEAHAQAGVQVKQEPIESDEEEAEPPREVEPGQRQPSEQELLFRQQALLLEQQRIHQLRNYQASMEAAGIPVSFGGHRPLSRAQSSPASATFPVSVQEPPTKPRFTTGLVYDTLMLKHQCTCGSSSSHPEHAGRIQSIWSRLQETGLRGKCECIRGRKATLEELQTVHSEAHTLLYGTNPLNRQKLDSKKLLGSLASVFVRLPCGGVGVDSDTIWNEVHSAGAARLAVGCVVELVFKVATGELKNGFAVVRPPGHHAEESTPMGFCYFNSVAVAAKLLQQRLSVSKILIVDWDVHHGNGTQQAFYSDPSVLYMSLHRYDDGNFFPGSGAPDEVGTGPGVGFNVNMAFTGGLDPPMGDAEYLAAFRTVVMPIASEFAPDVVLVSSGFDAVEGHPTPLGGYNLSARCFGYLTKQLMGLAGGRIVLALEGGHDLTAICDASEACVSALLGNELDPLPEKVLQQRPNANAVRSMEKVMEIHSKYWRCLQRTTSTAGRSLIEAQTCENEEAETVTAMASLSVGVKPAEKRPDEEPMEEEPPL
Sequence of HDAC1 (Q13547 whole entry): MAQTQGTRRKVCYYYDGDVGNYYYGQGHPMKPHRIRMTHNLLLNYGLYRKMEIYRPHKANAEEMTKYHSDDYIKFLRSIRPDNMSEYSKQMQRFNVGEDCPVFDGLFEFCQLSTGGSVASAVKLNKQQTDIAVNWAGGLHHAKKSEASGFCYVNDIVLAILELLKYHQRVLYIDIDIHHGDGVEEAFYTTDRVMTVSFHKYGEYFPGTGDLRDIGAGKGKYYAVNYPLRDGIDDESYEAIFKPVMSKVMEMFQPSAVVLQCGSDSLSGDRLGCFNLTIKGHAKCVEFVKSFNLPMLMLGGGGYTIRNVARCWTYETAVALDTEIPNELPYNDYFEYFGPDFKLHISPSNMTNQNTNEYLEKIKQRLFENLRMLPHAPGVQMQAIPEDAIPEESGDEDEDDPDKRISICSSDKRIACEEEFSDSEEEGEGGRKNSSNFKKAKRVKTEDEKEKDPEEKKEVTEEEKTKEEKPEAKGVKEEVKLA
Sequence of HDAC5 (Q9UQL6 whole entry): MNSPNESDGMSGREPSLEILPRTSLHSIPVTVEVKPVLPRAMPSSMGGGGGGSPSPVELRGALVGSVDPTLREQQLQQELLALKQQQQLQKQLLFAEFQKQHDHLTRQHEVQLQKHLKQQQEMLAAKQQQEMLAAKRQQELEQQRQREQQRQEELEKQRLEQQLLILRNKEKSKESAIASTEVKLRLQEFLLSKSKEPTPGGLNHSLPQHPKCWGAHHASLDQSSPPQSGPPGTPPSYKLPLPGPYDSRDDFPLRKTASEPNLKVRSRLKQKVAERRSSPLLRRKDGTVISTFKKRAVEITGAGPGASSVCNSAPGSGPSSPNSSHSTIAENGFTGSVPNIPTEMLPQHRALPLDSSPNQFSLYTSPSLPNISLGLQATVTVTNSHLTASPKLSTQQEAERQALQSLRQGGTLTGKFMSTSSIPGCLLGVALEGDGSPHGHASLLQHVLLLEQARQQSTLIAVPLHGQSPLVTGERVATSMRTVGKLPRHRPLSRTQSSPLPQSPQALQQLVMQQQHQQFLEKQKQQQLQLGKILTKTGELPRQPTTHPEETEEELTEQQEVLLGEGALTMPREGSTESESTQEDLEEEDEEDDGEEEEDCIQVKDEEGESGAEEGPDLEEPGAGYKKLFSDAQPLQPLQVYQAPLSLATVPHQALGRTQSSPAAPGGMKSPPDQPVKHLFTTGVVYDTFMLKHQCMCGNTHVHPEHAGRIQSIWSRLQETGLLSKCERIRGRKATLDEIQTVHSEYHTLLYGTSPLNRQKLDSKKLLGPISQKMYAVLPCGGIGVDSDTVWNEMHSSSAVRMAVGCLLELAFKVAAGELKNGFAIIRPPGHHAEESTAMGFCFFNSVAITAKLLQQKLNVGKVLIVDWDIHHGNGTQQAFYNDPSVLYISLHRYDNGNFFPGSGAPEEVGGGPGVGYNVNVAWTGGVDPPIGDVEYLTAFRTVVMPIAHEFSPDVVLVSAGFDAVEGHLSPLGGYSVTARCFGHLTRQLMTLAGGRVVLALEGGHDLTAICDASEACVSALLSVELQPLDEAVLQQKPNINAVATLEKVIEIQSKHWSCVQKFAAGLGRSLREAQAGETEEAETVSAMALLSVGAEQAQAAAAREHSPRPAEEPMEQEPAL
T1 sequence (O15379 whole entry): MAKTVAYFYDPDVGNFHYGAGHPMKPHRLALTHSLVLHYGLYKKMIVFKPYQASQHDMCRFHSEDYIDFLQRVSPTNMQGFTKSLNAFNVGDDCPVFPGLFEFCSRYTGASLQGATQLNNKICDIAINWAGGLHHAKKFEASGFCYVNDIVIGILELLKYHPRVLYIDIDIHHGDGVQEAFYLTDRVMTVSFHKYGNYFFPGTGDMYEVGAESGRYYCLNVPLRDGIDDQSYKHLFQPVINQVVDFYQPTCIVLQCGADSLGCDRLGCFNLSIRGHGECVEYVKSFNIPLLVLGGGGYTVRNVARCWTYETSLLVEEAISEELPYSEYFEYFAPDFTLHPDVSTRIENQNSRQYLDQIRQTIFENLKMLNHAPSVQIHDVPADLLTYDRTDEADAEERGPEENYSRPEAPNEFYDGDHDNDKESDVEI
Sequence of HDAC2 (Q92769 whole entry): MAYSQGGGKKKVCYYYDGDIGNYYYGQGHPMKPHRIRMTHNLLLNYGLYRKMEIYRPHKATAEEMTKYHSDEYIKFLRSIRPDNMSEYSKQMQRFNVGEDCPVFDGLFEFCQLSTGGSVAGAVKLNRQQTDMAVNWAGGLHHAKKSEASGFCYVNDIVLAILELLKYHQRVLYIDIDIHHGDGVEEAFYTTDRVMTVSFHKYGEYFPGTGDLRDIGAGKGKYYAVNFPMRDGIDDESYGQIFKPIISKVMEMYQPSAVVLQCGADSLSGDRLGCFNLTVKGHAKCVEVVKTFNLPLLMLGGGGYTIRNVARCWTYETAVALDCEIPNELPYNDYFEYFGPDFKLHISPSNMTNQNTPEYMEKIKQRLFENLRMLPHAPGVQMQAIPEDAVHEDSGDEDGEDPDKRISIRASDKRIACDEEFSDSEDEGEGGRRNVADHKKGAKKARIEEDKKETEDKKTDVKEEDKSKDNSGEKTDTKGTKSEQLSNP

PAC-320
450 to 1390 nM: all assays above

From publication PMC5787485, “HDAC inhibitor PAC-320 induces G2/M cell cycle arrest and apoptosis in human prostate cancer” (Oncotarget, 2017)
